These results are taken from ChEMBL document CHEMBL3593243, “Discovery of novel, potent, selective and cellular active ADC type PTP1B inhibitors via fragment-docking-oriented de novel design” (Bioorg Med Chem, 2015).

The target of assay [1] is T1, Tyrosine-protein phosphatase non-receptor type 1 (Homo sapiens, UniProt P18031).
T1 sequence (P18031 whole entry): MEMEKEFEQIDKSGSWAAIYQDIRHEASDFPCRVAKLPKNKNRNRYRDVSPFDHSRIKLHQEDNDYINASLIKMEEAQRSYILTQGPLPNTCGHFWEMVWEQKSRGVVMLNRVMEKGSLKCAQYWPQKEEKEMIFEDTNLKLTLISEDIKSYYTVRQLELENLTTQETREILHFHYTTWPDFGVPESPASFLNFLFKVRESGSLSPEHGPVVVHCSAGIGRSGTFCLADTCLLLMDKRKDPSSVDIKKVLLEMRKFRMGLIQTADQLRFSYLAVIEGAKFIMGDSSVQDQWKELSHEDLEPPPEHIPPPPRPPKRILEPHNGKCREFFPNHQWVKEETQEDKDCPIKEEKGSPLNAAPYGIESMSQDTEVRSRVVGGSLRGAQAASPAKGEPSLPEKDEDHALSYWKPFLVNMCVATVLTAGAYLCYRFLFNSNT
Kind of assay: Inhibition of human PTP1B catalytic domain expressed in Escherichia coli assessed as pNPP hydrolysis measured every 30 secs for 15 mins.

In assay [2] the target is T1, Tyrosine-protein phosphatase non-receptor type 1. Nature of the assay: Inhibition of recombinant PTP1B (unknown origin) assessed as pNPP hydrolysis after 30 mins.
For assay [3], the target named is T2, Tyrosine-protein phosphatase non-receptor type 2 (Homo sapiens, UniProt P17706).
T2 sequence (P17706 whole entry): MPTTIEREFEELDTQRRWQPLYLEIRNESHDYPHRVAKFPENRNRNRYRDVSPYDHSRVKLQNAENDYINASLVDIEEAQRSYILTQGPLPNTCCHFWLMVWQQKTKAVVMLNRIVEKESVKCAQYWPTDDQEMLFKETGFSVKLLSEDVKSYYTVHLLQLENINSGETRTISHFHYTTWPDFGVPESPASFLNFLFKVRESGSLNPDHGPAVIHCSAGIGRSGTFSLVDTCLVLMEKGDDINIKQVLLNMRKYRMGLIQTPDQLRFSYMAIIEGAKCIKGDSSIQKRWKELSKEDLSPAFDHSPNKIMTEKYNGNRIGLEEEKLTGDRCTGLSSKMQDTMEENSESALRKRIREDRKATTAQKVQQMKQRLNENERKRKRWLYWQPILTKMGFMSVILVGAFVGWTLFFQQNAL
Kind of assay: Inhibition of TCPTP (unknown origin) assessed as pNPP hydrolysis after 30 mins.

In assay [4] the target is Tyrosine-protein phosphatase non-receptor type 6 (Homo sapiens, UniProt P29350). Kind of assay: Inhibition of SHP1 (unknown origin) using pNPP as substrate.
Tyrosine-protein phosphatase non-receptor type 6, sequence (P29350 whole entry): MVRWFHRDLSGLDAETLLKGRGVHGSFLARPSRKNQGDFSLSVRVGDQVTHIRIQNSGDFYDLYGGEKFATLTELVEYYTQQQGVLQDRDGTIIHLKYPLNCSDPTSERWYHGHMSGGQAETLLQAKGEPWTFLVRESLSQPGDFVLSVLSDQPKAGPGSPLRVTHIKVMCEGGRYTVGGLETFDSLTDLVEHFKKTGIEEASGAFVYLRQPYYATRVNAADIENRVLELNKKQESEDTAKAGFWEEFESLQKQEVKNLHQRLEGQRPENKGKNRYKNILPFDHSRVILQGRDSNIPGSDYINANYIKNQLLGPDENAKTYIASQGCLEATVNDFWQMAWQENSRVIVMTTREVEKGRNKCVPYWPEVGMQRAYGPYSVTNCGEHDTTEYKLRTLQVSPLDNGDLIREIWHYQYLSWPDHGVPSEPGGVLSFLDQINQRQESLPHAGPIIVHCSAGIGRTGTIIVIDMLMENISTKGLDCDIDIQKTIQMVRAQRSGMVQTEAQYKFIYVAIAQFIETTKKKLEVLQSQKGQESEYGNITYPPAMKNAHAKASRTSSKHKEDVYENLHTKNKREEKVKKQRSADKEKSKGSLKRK

For the compound `NC(=O)[C@H](Cc1ccc(C(F)(F)P(=O)(O)O)cc1)NC(=O)[C@H](Cc1ccccc1)NC(=O)Cc1ccc(C(F)(F)P(=O)(O)O)cc1`, the Ki in assay [1] was determined as 1.7 nM.

Consider `CCOc1cc(NS(C)(=O)=O)c(OCC)cc1CNC(=O)Nc1ccccc1`, for which the IC50 in assay [2] came out at 537 nM.

On to `CCOc1cc(NS(C)(=O)=O)c(OCC)cc1CNC(=O)Nc1ccc(C)cc1`, for which the half-maximal inhibitory concentration (IC50) in assay [3] stood at 5190 nM; in assay [2], 309 nM.

For the compound `CCOc1cc(NS(C)(=O)=O)c(OCC)cc1CNC(=O)Nc1ccc(Br)cc1`, the IC50 came to 1360 nM in assay [3], 212 nM in assay [2] and 2310 nM in assay [4].

For `CCOc1cc(NS(C)(=O)=O)c(OCC)cc1CNC(=O)Nc1ccc(OC)cc1`, the values for the IC50 in assay [2] and in assay [4] were 203 nM and 9080 nM, respectively.

`CCOc1cc(NS(C)(=O)=O)c(OCC)cc1CNC(=O)Nc1cccc(OC)c1`: in assay [2], the IC50 was 2730 nM.

Turning to `CCOc1cc(NS(C)(=O)=O)c(OCC)cc1CNC(=O)Nc1ccc(OC)c(OC)c1`, the IC50 in assay [2] came out at 204 nM.

Consider `CCOc1cc(NS(C)(=O)=O)c(OCC)cc1CNC(=O)NCc1ccccc1`, for which the IC50 in assay [2] is 756 nM.

What is called Ki is the dissociation constant of the complex between target and ligand, obtained from inhibition or displacement. What is called IC50 is the concentration needed to halve the response being measured.
